Data: ChEMBL document CHEMBL1131673, “Potent and orally bioavailable noncysteine-containing inhibitors of protein farnesyltransferase” (Bioorg Med Chem Lett, 1999)

Key:
[1] = molecular target: Protein farnesyltransferase (Homo sapiens, UniProt P49354+P49356); experiment: In vitro inhibitory activity was evaluated against farnesyltransferase (FTase); type: protein-complex assay
[2] = (§1) Half life of compound determined in rat after iv administration at a dose of 10 mg/kg; type: ADME, organism-based; design: dose 10 mg/kg, route intravenous; conditions: in vivo
[3] = Tmax of compound determined in rat after iv administration at a dose of 10 mg/kg; type: ADME, organism-based; design: dose 10 mg/kg, route intravenous; conditions: in vivo
[4] = Area under curve of compound determined in dog after iv administration at a dose of 10 mg/kg; type: ADME, organism-based, Canis lupus familiaris; design: dose 10 mg/kg, route intravenous; conditions: in vivo
[5] = Area under curve of compound from zero time to infinity determined in dog […] at a dose of 10 mg/kg; type: ADME, organism-based, Canis lupus familiaris; design: time infinity, dose 10 mg/kg, route intravenous; conditions: in vivo
[6] = Oral bioavailability of compound determined in dog […] at a dose of 10 mg/kg; type: ADME, organism-based, Canis lupus familiaris; conditions: in vivo
Rattus norvegicus = experiment: Maximum plasma drug concentration of compound determined in rat after iv administration at a dose of 10 mg/kg; type: ADME, organism-based; design: dose 10 mg/kg, route intravenous; conditions: in vivo
[7] = Tmax of compound determined in dog […] at a dose of 10 mg/kg; type: ADME, organism-based, Canis lupus familiaris; design: dose 10 mg/kg, route intravenous; conditions: in vivo
[8] = as §1; type: ADME, organism-based; design: dose 10 mg/kg, route intravenous; conditions: in vivo; remark: listed apart in the source
[9] = Oral bioavailability of compound determined in mouse […] at a dose of 10 mg/kg; type: ADME, organism-based; conditions: in vivo
Canis familiaris = experiment: Maximum plasma drug concentration of compound determined in dog […] at a dose of 10 mg/kg; type: ADME, organism-based, Canis lupus familiaris; design: dose 10 mg/kg, route intravenous; conditions: in vivo
[10] = Area under curve of compound determined in rat after iv administration at a dose of 10 mg/kg; type: ADME, organism-based; design: dose 10 mg/kg, route intravenous; conditions: in vivo
[11] = Area under curve of compound from zero time to infinity determined in rat after iv administration at a dose of 10 mg/kg; type: ADME, organism-based; design: time infinity, dose 10 mg/kg, route intravenous; conditions: in vivo
[12] = Oral bioavailability of compound determined in rat […] at a dose of 10 mg/kg; type: ADME, organism-based; conditions: in vivo

IC50 [1] | SMILES | also measured
560 nM | CSCC[C@H](NC(=O)c1ccc(CNCc2ccco2)cc1-c1ccccc1)C(=O)O | 
19 nM | CSCC[C@H](NC(=O)c1ccc(COCc2ccc(-c3ccccn3)o2)cc1-c1ccccc1C)C(=O)O | 
0.7 nM | CSCC[C@H](NC(=O)c1ccc(COCc2ccc(-c3ccc(Cl)cc3)o2)cc1-c1ccccc1C)C(=O)[O-].[Li+] | half-life [2]: 74.4 min; Tmax [3]: 42 min; AUC [4]: 4.94 µg·h/mL; AUC [5]: 1.04 µg·h/mL; bioavailability [6]: 21.1%; Cmax (Rattus norvegicus): 1.25 µg/mL; Tmax [7]: 24 min; half-life [8]: 78 min; bioavailability [9]: 32%; Cmax (Canis familiaris): 0.713 µg/mL; AUC [10]: 8.1 µg·h/mL; AUC [11]: 2.39 µg·h/mL; bioavailability [12]: 30%
2.4 nM | CSCC[C@H](NC(=O)c1ccc(COCc2ccc(-c3ccncc3)o2)cc1-c1ccccc1C)C(=O)O | 
6.3 nM | CSCC[C@H](NC(=O)c1ccc(COCc2ccc(-c3ccccc3F)o2)cc1-c1ccccc1C)C(=O)O | 
2.9 nM | CSCC[C@H](NC(=O)c1ccc(COCc2ccc(-c3ccc(C)cc3)o2)cc1-c1ccccc1C)C(=O)O | 
6.2 nM | CSCC[C@H](NC(=O)c1ccc(COCc2ccc(-c3ccc(SC)cc3)o2)cc1-c1ccccc1C)C(=O)O | 
7.6 nM | CSCC[C@H](NC(=O)c1ccc(COCc2ccc(-c3cccc(F)c3)o2)cc1-c1ccccc1C)C(=O)O | 
2.6 nM | CSCC[C@H](NC(=O)c1ccc(COCc2ccc(-c3ccc(N(C)C)cc3)o2)cc1-c1ccccc1C)C(=O)O | 
> 1000 nM | CSCC[C@H](NC(=O)c1ccc(COc2ccccc2)cc1-c1ccccc1)C(=O)O | 
8.4 nM | COc1ccc(-c2ccc(COCc3ccc(C(=O)N[C@@H](CCSC)C(=O)O)c(-c4ccccc4C)c3)o2)cc1 | 
1.2 nM | CSCC[C@H](NC(=O)c1ccc(COCc2ccc(-c3ccc(C=O)cc3)o2)cc1-c1ccccc1C)C(=O)O | 
6 nM | CSCC[C@H](NC(=O)c1ccc(COCc2ccc(-c3cccc([N+](=O)[O-])c3)o2)cc1-c1ccccc1C)C(=O)O | 
3 nM | COC(=O)[C@H](CCSC)NC(=O)c1ccc(COCc2ccc(Br)o2)cc1-c1ccccc1C | 

Further lines, the molecule ahead of its results:

SMILES | IC50 [1] | also measured
COc1ccccc1-c1ccc(COCc2ccc(C(=O)N[C@@H](CCSC)C(=O)O)c(-c3ccccc3C)c2)o1 | 20 nM | 
CSCC[C@H](NC(=O)c1ccc(COCc2ccc(-c3ccc(Cl)c(F)c3)o2)cc1-c1ccccc1C)C(=O)O | 4.9 nM | 
CSCC[C@H](NC(=O)c1ccc(COCc2ccc(-c3cccnc3)o2)cc1-c1ccccc1C)C(=O)O | 6.5 nM | 
CSCC[C@H](NC(=O)c1ccc(COCc2ccc(-c3ccccc3)o2)cc1-c1ccccc1C)C(=O)O | 6 nM | 
CSCC[C@H](NC(=O)c1ccc(COCc2ccc(-c3cccc(C(F)(F)F)c3)o2)cc1-c1ccccc1C)C(=O)O | 8.8 nM | 
CSCC[C@H](NC(=O)c1ccc(COCc2ccc(-c3ccc(F)cc3)o2)cc1-c1ccccc1C)C(=O)O | 1.5 nM | 
COc1cccc(-c2ccc(COCc3ccc(C(=O)N[C@@H](CCSC)C(=O)O)c(-c4ccccc4C)c3)o2)c1 | 12 nM | 
CSCC[C@H](NC(=O)c1ccc(COCc2ccc(-c3ccccc3C(F)(F)F)o2)cc1-c1ccccc1C)C(=O)O | 9.9 nM | 
CSCC[C@H](NC(=O)c1ccc(COCc2ccc(-c3ccc(C(C)C)cc3)o2)cc1-c1ccccc1C)C(=O)O | 2.9 nM | 
CSCC[C@H](NC(=O)c1ccc(COCc2ccc(-c3ccc(C(F)(F)F)cc3)o2)cc1-c1ccccc1C)C(=O)O | 3 nM | 
CSCC[C@H](NC(=O)c1ccc(COCc2ccc(-c3ccc(C(C)=O)cc3)o2)cc1-c1ccccc1C)C(=O)O | 6.6 nM | 
